Values of other authors in US20100136094A1, “Systems for modulating inflammation” (Searete LLC, a limited liability corporation of the state …, priority 2008, published 2010).
Values belong to the compound of their own block, whether it stands above or below them.

Assays:
Src family kinase = conditions: Sanjuan et al. 2006
[1] = test system: proteasomal activity in cultured breast cancer cells; conditions: on binding copper, Chen et al. 2006
mice = conditions: Nakamura et al. 2007
Toll-like receptor 4 = Toll-like receptor 4 (Homo sapiens, UniProt O00206); conditions: Nakamura et al. 2007
[2] = 400 mg infused over one hour, single agent; Looareesuwan et al. 1986
[3] = test system: Src family kinases (Src, Lck, Yes, Fyn); conditions: at nanomolar concentrations
Epha1 = conditions: at nanomolar concentrations

Toll-like receptor 4, sequence (O00206 24-839, species assumed): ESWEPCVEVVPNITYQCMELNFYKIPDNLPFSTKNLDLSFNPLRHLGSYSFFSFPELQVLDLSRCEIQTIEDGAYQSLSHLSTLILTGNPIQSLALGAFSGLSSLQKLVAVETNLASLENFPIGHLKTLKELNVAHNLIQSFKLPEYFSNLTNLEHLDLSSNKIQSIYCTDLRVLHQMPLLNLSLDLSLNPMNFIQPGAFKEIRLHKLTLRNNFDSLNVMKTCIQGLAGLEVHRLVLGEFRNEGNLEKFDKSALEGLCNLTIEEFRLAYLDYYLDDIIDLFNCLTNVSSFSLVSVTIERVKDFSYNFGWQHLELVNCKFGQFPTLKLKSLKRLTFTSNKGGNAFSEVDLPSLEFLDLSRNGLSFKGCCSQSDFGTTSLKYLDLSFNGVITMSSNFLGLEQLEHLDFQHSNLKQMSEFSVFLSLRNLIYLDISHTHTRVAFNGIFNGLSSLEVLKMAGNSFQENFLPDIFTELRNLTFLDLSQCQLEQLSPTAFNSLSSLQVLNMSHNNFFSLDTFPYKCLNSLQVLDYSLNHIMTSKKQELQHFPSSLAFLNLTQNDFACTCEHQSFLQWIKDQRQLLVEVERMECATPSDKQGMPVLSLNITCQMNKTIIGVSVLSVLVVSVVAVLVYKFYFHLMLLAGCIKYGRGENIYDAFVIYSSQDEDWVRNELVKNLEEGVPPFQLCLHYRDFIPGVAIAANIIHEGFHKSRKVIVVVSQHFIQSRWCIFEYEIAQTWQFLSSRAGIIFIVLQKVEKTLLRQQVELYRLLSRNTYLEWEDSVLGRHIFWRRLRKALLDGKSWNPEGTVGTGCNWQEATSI

inhibition of CpG-induced Src family kinase activation, or its dependent cellular responses (Src family kinase): does not inhibit
SMILES: CCN(CC)CCCC(C)Nc1ccnc2cc(Cl)ccc12 (centres unmarked) [Chloroquine]

SMILES: CCN(CC)C(=S)SSC(=S)N(CC)CC [Disulfiram, 1-(diethylthiocarbamoyldisulfanyl)-N,N-diethyl-methanethioamide]
proteasomal activity [1]: inhibits proteasomal activity | inhibition of aldehyde dehydrogenase (aldehyde dehydrogenase): inhibits aldehyde dehydrogenase without toxicity

SMILES: Cl.Cl.Nc1ccccc1Oc1ccc2c(N)nsc2c1 [Example M62812, 3-amino-6-(2-aminophenoxy)-1,2-benzisothiazole dihydrochloride]
prevention of lethal septic shock (mice): prevents lethal septic shock | inhibition of Toll-like receptor 4 (Toll-like receptor 4): inhibitor

SMILES: CCN(CC)CCCC(C)Nc1ccnc2cc(Cl)ccc12.O=P(O)(O)O.O=P(O)(O)O (centres unmarked) [chloroquine phosphate, 7-chloro-4-[[4-(diethylamino)-1-methylbutyl]amino]quinoline phosphate (1:2)]
tolerability of intravenous infusion [2]: without complication

SMILES: Cc1nc(Nc2ncc(C(=O)Nc3c(C)cccc3Cl)s2)cc(N2CCN(CCO)CC2)n1.O [dasatinib, N-(2-chloro-6-methylphenyl)-2-[[6-[4-(2-hydroxyethyl)-1-piperazinyl]-2-methyl-4-pyrimidinyl]amino]-5-thiazolecarboxamide, monohydrate]
inhibition of Src family kinases (Src, Lck, Yes, Fyn) [3]: inhibits | inhibition of Epha1 (Epha1): inhibits
